Laboratory results: PubChem BioAssay (NCI)
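Compound exposure: 48 hours, 5 concentrations, 96-well plates. The concentration for 50% growth inhibition is given as GI50. Definition used: TGI = concentration required for complete inhibition of growth.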

How the values were obtained:
Assay in all cases: NCI tumour cell line growth inhibition, 48 h
[1] = tested on: MOLT-4 leukemia
[2] = tested on: NCI-H226 lung
[3] = tested on: NCI-H23 lung
[4] = tested on: NCI-H460 lung
[5] = tested on: NCI/ADR-RES ovarian
[6] = tested on: OVCAR-3 ovarian
[7] = tested on: OVCAR-4 ovarian
[8] = tested on: OVCAR-5 ovarian
[9] = tested on: OVCAR-8 ovarian
[10] = tested on: PC-3 prostate
[11] = tested on: RPMI-8226 leukemia
[12] = tested on: RXF 393 renal
[13] = tested on: SF-268 CNS
[14] = tested on: SF-295 CNS
[15] = tested on: SF-539 CNS
[16] = tested on: SK-MEL-28 melanoma
[17] = tested on: SK-MEL-5 melanoma
[18] = tested on: SK-OV-3 ovarian
[19] = tested on: SN12C renal
[20] = tested on: SNB-75 CNS
[21] = tested on: SR leukemia
[22] = tested on: SW-620 colon
[23] = tested on: T-47D breast
[24] = tested on: U251 CNS
[25] = tested on: UACC-257 melanoma
[26] = tested on: UACC-62 melanoma
[27] = tested on: UO-31 renal

For `NCCOCCOCCNc1nc(Cc2ccccc2)nc(NCCCN2CCCC2=O)n1`, the TGI [1] was > 100 µM, the GI50 [2] was > 100 µM and the TGI [2] was > 100 µM. The GI50 [3] was > 100 µM, the TGI [3] was > 100 µM and the GI50 [4] was > 100 µM. For the same molecule, the TGI [4] was > 100 µM, the GI50 [5] was > 100 µM and the TGI [5] was > 100 µM. The GI50 [6] was > 100 µM, the TGI [6] was > 100 µM and the GI50 [7] was > 100 µM. The TGI [7] was > 100 µM, the GI50 [8] was > 100 µM and the TGI [8] was > 100 µM. The GI50 [9] was > 100 µM, the TGI [9] was > 100 µM and the GI50 [10] was > 100 µM. For the same molecule, the TGI [10] was > 100 µM, the GI50 [11] was > 100 µM and the TGI [11] was > 100 µM. For the same molecule, the GI50 [12] was > 100 µM, the TGI [12] was > 100 µM and the GI50 [13] was > 100 µM. For the same molecule, the TGI [13] was > 100 µM, the GI50 [14] was > 100 µM and the TGI [14] was > 100 µM. For the same molecule, the GI50 [15] was > 100 µM, the TGI [15] was > 100 µM and the GI50 [16] was > 100 µM. The TGI [16] was > 100 µM, the GI50 [17] was > 100 µM and the TGI [17] was > 100 µM. The GI50 [18] was > 100 µM, the TGI [18] was > 100 µM and the GI50 [19] was > 100 µM. The TGI [19] was > 100 µM, the GI50 [20] was > 100 µM and the TGI [20] was > 100 µM. The GI50 [21] was > 100 µM, the TGI [21] was > 100 µM and the GI50 [22] was > 100 µM. For the same molecule, the TGI [22] was > 100 µM, the GI50 [23] was > 100 µM and the TGI [23] was > 100 µM. For the same molecule, the GI50 [24] was > 100 µM, the TGI [24] was > 100 µM and the GI50 [25] was > 100 µM. The TGI [25] was > 100 µM, the GI50 [26] was > 100 µM and the TGI [26] was > 100 µM. For the same molecule, the GI50 [27] was > 100 µM and the TGI [27] was > 100 µM.
